Assay results reported in patent US20260226010A1, “HETEROCYCLIC COMPOUNDS AS PI3Ka INHIBITORS” (Pikavation Therapeutics, Inc., priority 2023, published 2026).

System: T47D (PIK3CA H1047R) cells
Test: pS473 AKT assay
Format: cell-based
Details: Homo sapiens; pSer473 AKT in T47D (PIK3CA H1047R) cells, 2 h treatment, DMEM with 2.5% FBS; read-out: T47D_IC50
Description: T47D (PIK3CA H1047R) cells were cultured using 10-cm petri dishes with recommended medium plus 10% fetal bovine serum. One day before the assay, cells were seeded in 96-well plates. After overnight incubation, the medium was changed to DMEM with 2.5% fetal bovine serum (FBS) and the cells were treated with different concentrations of the compounds for 2 h. Cells were then fixed using 4% paraformaldehyde at room temperature for 20 min. Aspirate 4% paraformaldehyde, and wash cells using 1× regular phosphate buffered saline 3 times, 5 min each. Aspirate any residual phosphate buffered saline and block cells using 10% goat serum containing 1% bovine serum albumin and 0.3% Triton X-100 at room temperature for 1 h. Without any additional washing, primary antibodies (rabbit anti-pSer473 AKT) were diluted using blocking buffer and added at a final volume of 50 microliter per well. Keep assay plates with primary antibodies overnight at 4° C. Wash cells using 1× regular phosphate buffered saline 3 times, 5 min each. After the final wash, incubate cells with horseradish peroxidase-conjugated secondary antibodies (goat Anti-rabbit IgG) diluted using the same blocking buffer at room temperature for 1 h. Wash cells thoroughly using 1× regular phosphate buffered saline 3 times, 5 min each. Aspirate any residual phosphate buffered saline. Add Super-Signal ELISA Pico Chemiluminescent Substrate at a final volume of 100 microliter per well. Read plates on i3× Multi-Mode Microplate Reader and calculate IC50 values using GraphPad Prism software.

| Compound | IC50 [nM] |
| --- | --- |
| Cc1cc2c(c(C(C)Nc3ccccc3C(=O)O)c1)CC1(CCc3ccccc31)N(C)C2=O (stereo not shown) [Example 1, 2-[1-(2,7-Dimethyl-1-oxo-spiro[4H-isoquinoline-3,1′-indane]-5yl)ethylamino]benzoic acid] | < 1000 |
| Cc1cc2c(c(C(C)Nc3ccc(Cl)nc3C(=O)O)c1)CC1(CCc3ccccc31)N(C)C2=O (stereo not shown) [Example 3, 6-Chloro-3-[1-(2,7-dimethyl-1-oxo-spiro[4H-isoquinoline-3,1′-indane]-5-yl)ethylamino]pyridine-2-carboxylic acid] | < 1000 |
| Cc1cc2c(c(C(C)Nc3ccc(Cl)nc3-c3cnn(C)c3)c1)CC1(CCc3ccccc31)N(C)C2=O (stereo not shown) [Example 6, 5-[1-[[6-Chloro-2-(1-methylpyrazol-4-yl)-3-pyridyl]amino]ethyl]-2,7-dimethyl-spiro[4H-isoquinoline-3,1′-indane]-1-one] | < 1000 |
| Cc1cc2c(c(C(C)Nc3ccc(Cl)nc3-c3ccncc3F)c1)CC1(CCc3ccccc31)N(C)C2=O (stereo not shown) [Example 7, 5-[1-[[6-Chloro-2-(3-fluoro-4-pyridyl)-3-pyridyl]amino]ethyl]-2,7-dimethyl-spiro[4H-isoquinoline-3,1′-indane]-1-one] | < 1000 |

Second part, the compound after the results:

| IC50 [nM] | Compound |
| --- | --- |
| < 1000 | Cc1cc2c(c(C(C)Nc3ccc(C)nc3C(=O)O)c1)CC1(CCc3ccccc31)N(C)C2=O (stereo not shown) [Example 2, 3-[1-(2,7-Dimethyl-1-oxo-spiro[4H-isoquinoline-3,1′-indane]-5-yl)ethylamino]-6-methyl-pyridine-2-carboxylic acid] |
| 1000 to 5000 | Cc1cc2c(c(C(C)Nc3ccccc3C(=O)O)c1)CC1(Cc3ccccc3C1)N(C)C2=O (stereo not shown) [Example 4, 2-[1-(2,7-Dimethyl-1-oxo-spiro[4H-isoquinoline-3,2′-indane]-5-yl)ethylamino]benzoic acid] |
| 1000 to 5000 | Cc1cc2c(c(C(C)Nc3ccc(C)nc3C(=O)O)c1)CC1(Cc3ccccc3C1)N(C)C2=O (stereo not shown) [Example 5, 3-((1-(2′,7′-Dimethyl-1′-oxo-1,1′,3,4′-tetrahydro-2′H-spiro[indene-2,3′-isoquinolin]-5′-yl)ethyl)amino)-6-methylpicolinic acid] |
